Measured values from patent US8445502B2, “Pharmaceutical formulations comprising salts of a protein kinase inhibitor and methods of using same” (Astex Pharmaceuticals, Inc., priority 2007, dated 2013).
Where two headings read alike, the source gives them in different places.

Assays:
A549 lung cancer cells = assay type: in vivo; conditions: Day 26, 10 mg/kg IP in sterile saline, qd×5×3 wk (vehicle 43)
Procedure: (§1) MP470 and MP470 HCl were tested against different tumor types in athymic nude mice as summarized below (Table 8). Various formulations and routes were evaluated. HT-29 colorectal cancer cells and SB-CL2 melanoma cells were implanted subcutaneously, while A549 lung cancer cells, MiaPaCa-2 pancreatic cancer cells, TT medullary thyroid cancer cells, and OVCAR-3 ovarian cancer cells were implanted […] in the hind flank of mice. All animals were allowed to develop medium-sized (80-125 mg) tumors, before initiation of dosing. Tumor volume and mouse bodyweight were followed over the course of the study.
A549 Lung Cancer Model—In 40 nude mice implanted intradermally with A549 lung cancer cells, animals were dosed with vehicle orally, MP470 in 100% corn oil orally, or 5-FU in sterile saline IP. […] […] While MP470 reduced tumor growth rates, treatment of these cells with 5-FU reduced the overall tumor growth rate per day further to 19.5 mm3/d on Day 26.
To determine whether MP470.HCl in combination with carboplatin increased the anti-tumor activity in xenograft tumors growing in vivo, the agents were administered alone and in combination and tumor growth was monitored. MP470.HCl (50 mg/kg) was combined with carboplatin (30 mg/kg) alone or carboplatin with taxol (20 mg/kg).

[1] = tested on: Rad51 in A549 non-small cell lung cancer cells; assay: Rad51 protein level by Western blot in cells; assay type: cell-based; conditions: 6.1 μM carboplatin, 24 hrs
Procedure: Rad51 protein levels were also determined in A549 non-small cell lung cancer cells using combinations with DNA damaging agents. Cells were treated for 24 hrs with 6.1 μM (IC30 of carboplatin alone) carboplatin in combination with 0.71 μM or 3.82 μM MP470.HCl. Protein lysates were isolated from treated and non-treated cells, separated by SDS-PAGE, and transferred to nitrocellulose. […] The increase in Rad51 due to carboplatin treatment was reduced by 26% when treated in combination with 0.71 μM MP470.HCl and by 42% with 3.82 μM MP470.HCl

A549 NSCLC cells = assay: Sensitization of NSCLC cells to carboplatin; assay type: cell-based; conditions: A549, single agent
Procedure: (§2) The non-small cell lung cancer cell lines A549 and NCI-H647 were used for these experiments. […] The IC50 concentrations observed for carboplatin against both of these cell lines was consistent with this.
(§3) Two sub-IC50 doses of MP470.HCl were tested in combination with carboplatin to evaluate possible synergism between these agents and consequently a lower IC50 value for carboplatin in each of the cell lines.
(§4) MP470.HCl was able to dramatically decrease the IC50 of carboplatin in these cells.

NCI-H647 NSCLC cells = assay: Sensitization of NSCLC cells to carboplatin; assay type: cell-based; conditions: NCI-H647, single agent
Procedure: as §2, §3, §4

DMS-153 SCLC cells = assay: Sensitization of SCLC cells to etoposide; assay type: cell-based; conditions: Homo sapiens; DMS-153, single agent
Procedure: (§5) Therefore, to determine if MP470 would increase sensitivity to etoposide treatment, SCLC cells were treated with the agents individually and in combination. […] Two sub-IC50 doses of MP470.HCl were tested in combination with etoposide to evaluate possible synergism and a resulting lower IC50 value for etoposide in each of the cell lines.

DMS-114 SCLC cells = assay: Sensitization of SCLC cells to etoposide; assay type: cell-based; conditions: Homo sapiens; DMS-114, single agent
Procedure: as §5

[2] = Solubility of MP470 and its salts (Table 2); assay type: physicochemical; conditions: water
[3] = tested on: OVCAR-3 ovarian cancer cells; assay: OVCAR-3 ovarian cancer tumor model in nude mice; assay type: in vivo
Procedure: as §1
OVCAR-3 Ovarian Cancer Model—Forty-two nude mice were implanted subcutaneously with OVCAR-3 ovarian carcinoma, the hydrochloride salt of MP470 (MP470.HCl) was formulated in 100% corn oil and delivered orally. MP470.HCl, cisplatin, and irinotecan were administered to animals alone or in combination. When administered alone, MP470.HCl was given qd at 100 or 200 mg/kg, irinotecan was given q3d at 20 mg/kg, and cisplatin was given q7d at 5 mg/kg. In combination studies, 100 mg/kg MP470.HCl was given qd and combined with 20 mg/kg irinotecan given q3d or 5 mg/kg cisplatin given q7d. One animal in the 200 mg/kg MP470.HCl group died on Day 1, while five animals in the MP470.HCl/cisplatin combination group died (one on Day 5, Day 6, Day 7, Day, 20, and Day 27). Treatment with each individual agent (200 mg/kg MP470.HCl, 46.2 mm3/d; 20 mg/kg irinotecan, 38.53 mm3/d; 5 mg/kg cisplatin, 33.8 mm3/d) reduced the tumor growth rate below that of vehicle-treated mice (78.04 mm3/d). […] In contrast, when MP470.HCl and cisplatin were used in combination, the tumor growth rate was reduced to 10.22 mm3/d. However, the 100 mg/kg dose of MP470.HCl in combination with cisplatin caused enhanced toxicity and most animals in this group died during the 21-day treatment period. The enhanced toxicity was related to the level of the dose used, so a subsequent study was conducted using half the dose, 50 mg/kg/day as described below.

[4] = rat, in vivo, po
Procedure: Twenty-four rats were placed into four groups each consisting of three animals per sex. The animals were weighed the day before dosing, as well as just prior to dosing.
After intravenous infusion of MP470.HCl at 5 mg/kg, average MP470 peak plasma concentrations of 454.3 ng/mL for males and 370.7 ng/mL for females were attained at 0.083 hours (5 minutes), the first sampling point postdose. After oral administration of non-micronized MP470.HCl, peak plasma concentrations of MP470 were attained at 0.5-12 hours for Group 2 (25 mg/kg) and 4-12 hours for Group 3 (100 mg/kg, suspension). The extent of systemic exposure of rats to MP470, characterized by AUCO-∞, was approximately 3.8-fold and 2.9-fold higher in females than in males for Groups 2 and 3, respectively. Average AUCO-∞ values were higher at 100 mg/kg than at 25 mg/kg and the increases in AUCO-∞ were greater than dose-proportional.
After oral administration of micronized MP470.HCl (Group 4), peak plasma concentrations of MP470 were attained at 4-12 hours. The extent of systemic exposure of rats to MP470, characterized by AUCO-∞, was approximately 3.4-fold higher in females than in males for Group 4. The extent of exposure of rats to MP470, characterized by AUCO-∞, was 1.7-fold (males) and 1.4-fold (females) higher for non-micronized MP470 HCl (Group 3) than for micronized MP470 HCl (Group 4).

[5] = tested on: γ-H2AX levels in OVCAR-3 (ovarian carcinoma) cells; assay: DNA damage by γ-H2AX levels; assay type: cell-based; conditions: single agent 10 μM; control 0.5% DMSO medium
Procedure: OVCAR-3 (ovarian carcinoma) cells were treated with MP470 (10 μM), MP470.HCl (10 μM), and/or topotecan (10 μM).

O=c1[nH]cc(F)c(=O)[nH]1 [5-FU, 5-fluorouracil, reference compound]
tumor growth rate (A549 lung cancer cells): 19.5 mm3/d

N.N.O=C([O-])C1(C(=O)[O-])CCC1.[Pt+2] [Carboplatin, reference compound]
increase of Rad51 levels over non-treatment levels [1]: 12 fold | IC50 (A549 NSCLC cells): 20.1 µM | IC50 (NCI-H647 NSCLC cells): 173 µM

COc1cc([C@@H]2c3cc4c(cc3[C@@H](O[C@@H]3O[C@@H]5CO[C@@H](C)O[C@H]5[C@H](O)[C@H]3O)[C@H]3COC(=O)[C@H]23)OCO4)cc(OC)c1O [Etoposide, reference compound]
IC50 (DMS-153 SCLC cells): 0.29 µM | IC50 (DMS-114 SCLC cells): 0.92 µM

S=C(NCc1ccc2c(c1)OCO2)N1CCN(c2ncnc3c2oc2ccccc23)CC1 [MP470 Esylate]
Solubility in water [2]: 5.89 µg/mL

N.N.[Cl][Pt][Cl] [cisplatin, reference compound]
tumor growth rate ([3]; 5 mg/kg q7d (vehicle 78.04)): 33.8 mm3/d

CCc1c2c(nc3ccc(OC(=O)N4CCC(N5CCCCC5)CC4)cc13)-c1cc3c(c(=O)n1C2)COC(=O)[C@]3(O)CC [irinotecan, reference compound]
tumor growth rate ([3]; 20 mg/kg q3d (vehicle 78.04)): 38.53 mm3/d

Cl.S=C(NCc1ccc2c(c1)OCO2)N1CCN(c2ncnc3c2oc2ccccc23)CC1 [micronized MP470.HCl]
AUC0-∞ in females relative to males ([4]; 100 mg/kg): approximately 3.4 fold | time of peak plasma concentration ([4]; 100 mg/kg): 4 to 12 h

Cl.S=C(NCc1ccc2c(c1)OCO2)N1CCN(c2ncnc3c2oc2ccccc23)CC1 [non-micronized MP470.HCl]
AUC0-∞ in females relative to males ([4]; 25 mg/kg): approximately 3.8 fold | time of peak plasma concentration ([4]; 25 mg/kg): 0.5 to 12 h | AUC0-∞ in females relative to males ([4]; 100 mg/kg): ~2.9 fold | time of peak plasma concentration ([4]; 100 mg/kg): 4 to 12 h

CC[C@@]1(O)C(=O)OCc2c1cc1n(c2=O)Cc2cc3c(CN(C)C)c(O)ccc3nc2-1 [topotecan, reference compound]
Increase in DNA damage (γ-H2AX) over control [5]: 65%
